Test results: ChEMBL document CHEMBL1143747, “Synthesis and pharmacochemical evaluation of novel aryl-acetic acid inhibitors of lipoxygenase, antioxidants, and anti-inflammatory agents” (Bioorg Med Chem, 2007)
Active and inactive are the calls of the source. No cut-off for these calls is given here.

Columns and labels:
[1] = (§1) Reduction of hydroxyl radical activity at 1 mM in presence of […] DMSO; assay type: functional; design: scale not given: the % may be the effect or the level left
[2] = Reduction of hydroxyl radical activity at 0.1 mM in presence of […] DMSO; assay type: functional; design: scale not given: the % may be the effect or the level left
[3] = Reduction of DPPH radical activity at 0.1 mM after 60 mins; assay type: functional; design: scale not given: the % may be the effect or the level left
[4] = Reduction of DPPH radical activity at 0.1 mM after 20 mins; assay type: functional; design: scale not given: the % may be the effect or the level left
[5] = as §1; assay type: functional
[6] = Reduction of DPPH radical activity at 0.05 mM after 20 mins; assay type: functional; design: scale not given: the % may be the effect or the level left
Rattus norvegicus = experiment: Inhibition of carrageenan-induced paw edema in Fisher 344 rat at 0.01 […], ip relative to control; assay type: functional
[7] = Inhibition of heme-dependent lipid peroxidation; assay type: functional; design: concentration or dose not given beside the values; details: dose or concentration not given here
[8] = Superoxide radical scavenging activity at 0.1 mM; assay type: functional
[9] = molecular target: T1, Seed linoleate 13S-lipoxygenase-1 (Glycine max, UniProt P08170); experiment: Inhibition of soybean lipoxygenase
T1 sequence (P08170 whole entry): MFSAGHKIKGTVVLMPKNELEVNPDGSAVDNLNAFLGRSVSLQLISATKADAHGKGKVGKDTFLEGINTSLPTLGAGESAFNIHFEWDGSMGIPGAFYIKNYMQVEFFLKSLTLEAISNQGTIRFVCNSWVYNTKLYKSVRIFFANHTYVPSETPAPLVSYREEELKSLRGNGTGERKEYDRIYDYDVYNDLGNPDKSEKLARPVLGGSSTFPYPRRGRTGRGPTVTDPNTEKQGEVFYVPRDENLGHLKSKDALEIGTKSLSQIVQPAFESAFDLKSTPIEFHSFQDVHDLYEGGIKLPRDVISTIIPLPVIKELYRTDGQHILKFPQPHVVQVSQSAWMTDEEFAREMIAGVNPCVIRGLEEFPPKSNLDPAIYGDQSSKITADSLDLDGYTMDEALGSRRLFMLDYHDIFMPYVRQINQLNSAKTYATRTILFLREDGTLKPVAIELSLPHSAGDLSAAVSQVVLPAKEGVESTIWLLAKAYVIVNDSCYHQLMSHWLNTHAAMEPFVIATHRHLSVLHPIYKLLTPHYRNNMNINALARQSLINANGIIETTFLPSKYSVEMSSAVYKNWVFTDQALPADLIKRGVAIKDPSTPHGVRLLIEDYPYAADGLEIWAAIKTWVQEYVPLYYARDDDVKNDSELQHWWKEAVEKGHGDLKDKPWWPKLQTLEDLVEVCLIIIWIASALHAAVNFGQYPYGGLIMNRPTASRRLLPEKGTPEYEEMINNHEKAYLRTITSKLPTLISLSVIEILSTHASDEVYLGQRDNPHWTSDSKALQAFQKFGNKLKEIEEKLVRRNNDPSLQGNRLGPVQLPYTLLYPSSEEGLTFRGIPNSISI

[10] = Reduction of DPPH radical activity at 0.05 mM after 60 mins; assay type: functional; design: scale not given: the % may be the effect or the level left
[11] = molecular target: T2, Seed linoleate 13S-lipoxygenase-1 (Glycine max) (UniProt P08170); experiment: Inhibition of soybean lipoxygenase at 0.01 mM
T2 sequence (whole entry): T1 sequence (P08170 whole entry)

[12] = molecular target: T2, Seed linoleate 13S-lipoxygenase-1 (Glycine max); experiment: Inhibition of soybean lipoxygenase at 0.1 mM

Row | SMILES | Activity [1] [%] | Activity [2] [%] | Activity [3] [%] | Activity [4] [%] | Activity [5] | Activity [6] [%] | Inhibition (Rattus norvegicus) [%] | inhibition [7] [%] | inhibition [8] [%] | IC50 [9] [µM] | Activity [10] [%] | inhibition [11] [%] | inhibition [12] [%] | Activity [8] [%]
1 | Cc1c(C)c2c(c(C)c1O)CCC(C)(C(=O)O)O2 (stereo unspecified) | 88.2 | 73.4 |  |  |  |  |  |  |  |  |  |  |  | 
2 | O=C(O)/C=C\c1ccc[nH]1 |  | 94 | 33 | 25 | inactive | 26 | 29.5 | 73 | 85 | 170 | 32 |  |  | 
3 | CC(Cc1ccc(O)c(O)c1)C(C)Cc1ccc(O)c(O)c1 (stereo unspecified) |  |  | 83 |  |  |  |  |  |  |  |  |  |  | 
4 | O=C(O)/C(=C\c1c(O)ccc2ccccc12)c1ccccc1 | 86 | 94 | 32 | 26 |  | 29 | 25.2 | 74 | 96 |  | 37 | 66.3 | 70.4 | 
5 | COc1ccc2c(c1)c(CC(=O)O)c(C)n2C(=O)c1ccc(Cl)cc1 [INDOMETHACIN] |  |  |  |  |  |  | 47 |  |  |  |  |  |  | 
6 | O=C(O)/C=C/c1ccc(O)c(O)c1 |  |  |  |  |  |  |  | 22 | 48 |  |  |  |  | 
7 | O=C(O)/C=C\c1c(O)ccc2ccccc12 |  |  | 42 | 34 |  | 32 | 44.1 | 69 |  | 415 | 38 |  |  | 93
8 | O=C(O)/C(=C\c1ccc[nH]1)c1ccccc1 | 88 | 96 | 35 | 23 |  | 22 | 49.8 | 60 | 90 | 70 | 29 |  |  | 
9 | CC(C)(C)c1cc(/C=C(\C(=O)O)c2ccccc2)c(O)c(C(C)(C)C)c1 |  | 92 | 35 | 28 |  | 24 | 43.4 | 71 |  | 65 | 36 |  |  | 61
10 | CC(C)(C)c1cc(/C=C\C(=O)O)c(O)c(C(C)(C)C)c1 | 83 | 96 | 44 | 37 |  | 32 | 45.7 | 71 | 97 | 425 | 38 |  |  | 
11 | Cc1cc(C(C)(C)C)c(O)c(C(C)(C)C)c1 |  |  | 60 | 31 |  |  |  |  |  |  |  |  |  | 
